Consider 2 compounds from US8318707B2 (priority 2006, dated 2012).

Structures are written as SMILES.

The subject of data set [1] is mixed neural culture of hippocampus cells exposed to kainate. In kind it is cell-based, rat.
Data set [2] concerns permanent focal ischemia (occlusion of the middle cerebral artery). As to the kind of experiment: in vivo permanent focal ischemia model in mice (MCAo), lesion volume by TTC colouring.
The subject of data set [3] is organotypical slices of rat hippocampus (CA3 region). The data set is described as follows: in vitro complex excitotoxicity model: organotypical rat hippocampus culture exposed to kainate. Conditions: 20 μM, 24 hours.

For `CC[C@H](CO)Nc1nc(NCc2ccccc2)c2ncn(C(C)C)c2n1` [(R)-roscovitine], in data set [1], the “amount necessary compared with (S)-roscovitine to prevent the death of the same number of neurones” value is reported as “Three times more” and the “neuronal death percentage (RND)” value was determined as 62%.
As to `CC[C@@H](CO)Nc1nc(NCc2ccccc2)c2ncn(C(C)C)c2n1` [(S)-roscovitine], in data set [1], the “neurones prevented from death compared with (R)-roscovitine” value is recorded as “twice as many”. Also, in data set [2] (ICV, 500 μM, 3 hours after occlusion), the “reduction in the size of the penumbra zone compared with the control” value turned out to be 35.8%. The “volume of the necrotic core” value in data set [2] (ICV, 500 μM, 3 hours after occlusion (control 6.06 mm3)) is recorded as 5.39 mm3; in data set [2] (systemic (PI), 25 mg/kg intraperitoneal x2, 3 hours after occlusion (control 5.03 mm3)), 4.88 mm3. Moreover, the “volume of the penumbra zone” value in data set [2] (ICV, 500 μM, 3 hours after occlusion (control 12.68 mm3)) is 8.14 mm3; in data set [2] (systemic (PI), 25 mg/kg intraperitoneal x2, 3 hours after occlusion (control 15.31 mm3)), 9.22 mm3. Besides, the “total volume of the lesion” value is listed as 13.54 mm3 in data set [2] (ICV, 500 μM, 3 hours after occlusion (control 18.74 mm3)) and 14.10 mm3 in data set [2] (systemic (PI), 25 mg/kg intraperitoneal x2, 3 hours after occlusion (control 20.34 mm3)). The “reduction in the total volume of the lesion compared with the control” value worked out at 27.7% in data set [2] (intracerebroventricular (ICV), 500 μM by osmotic micropump from 48 hours before MCAo, 3 hours after occlusion); 30.7% in data set [2] (systemic (PI), 25 mg/kg, 2 intraperitoneal injections 15 minutes before and 1 hour after MCAo, 3 hours after occlusion). Moreover, the “reduction in the size of the penumbra compared with the control” value in data set [2] (systemic (PI), 25 mg/kg intraperitoneal x2, 3 hours after occlusion) was 38.9%. Moreover, in data set [3], the “toxic effect on organotypical rat hippocampus cultures” value is listed as “absence of toxic effect”.
